“Also recorded” adds a separate entry of the source.
Experiments:
TMV [1] = assay: Curative effect of compounds against TMV in vivo; conditions: Tobacco mosaic virus, read-out: relative inhibition rate (%) curative effect
[2] = target: T1, TMV coat protein (TMV-CP) (Tobacco mosaic virus, UniProt P69687); assay: Microscale thermophoresis binding to TMV-CP
T1 sequence (P69687 2-159 limits assumed): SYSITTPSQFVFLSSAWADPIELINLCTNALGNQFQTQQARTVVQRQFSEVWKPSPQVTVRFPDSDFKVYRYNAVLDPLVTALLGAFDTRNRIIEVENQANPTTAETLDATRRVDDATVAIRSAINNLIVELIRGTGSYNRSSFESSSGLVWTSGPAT

TMV [3] = assay: Inactivation effect of compounds against TMV in vivo; set-up: species or system tobacco mosaic virus; conditions: for inhibition at 100 µg/mL / inhibition at 500 µg/mL: Tobacco mosaic virus, read-out: relative inhibition rate (%) inactive effect
TMV [4] = assay: Protective effect of compounds against TMV in vivo; set-up: species or system tobacco mosaic virus; conditions: for inhibition at 100 µg/mL / inhibition at 500 µg/mL: Tobacco mosaic virus, read-out: relative inhibition rate (%) protective effect
TMV particles = assay: Morphological observation of TMV particles via transmission electron microscopy; set-up: species or system tobacco mosaic virus; conditions: 500 mg/L
Alternaria solani = type: cell-based; conditions: read-out: Inhibition rate, As
[5] = system: Fusarium oxysporium f. sp. cucumeris; type: cell-based; conditions: read-out: Inhibition rate, Fc
Botrytis cinerea = type: cell-based; conditions: read-out: Inhibition rate, Bc
Sclerotinia sclerotiorum = type: cell-based; conditions: read-out: Inhibition rate, Ss
Rhizoctonia solani = type: cell-based; conditions: read-out: Inhibition rate, Rs
Physalospora piricola = type: cell-based; conditions: read-out: Inhibition rate, Pp, 50 mg/L, Physalospora piricola
Phytophthora capsici = type: cell-based; conditions: read-out: Inhibition rate, Pc
Bipolaris maydis = type: cell-based; conditions: read-out: Inhibition rate, Bm
watermelon anthracnose = assay: organism not typed; type: cell-based; conditions: read-out: Inhibition rate, Wa
Fusarium graminearum = assay: microbe, parasite or virus in culture; type: cell-based; conditions: read-out: Inhibition rate, Fg
TMV [6] = conditions: 500 mg/L; cited from earlier work
TMV [7] = conditions: 500 mg/L; cited from earlier work; remark: listed apart in the source
TMV [8] = conditions: 500 mg/L; cited from earlier work; remark: listed apart in the source
TMV [9] = conditions: cited from earlier work
[10] = system: 14 kinds of phytopathogenic fungi; assay: Fungicidal activity against 14 kinds of phytopathogenic fungi; type: cell-based; conditions: read-out: inhibitory rate against three fungi

| Compound | inhibition at 100 µg/mL (TMV [1]) [%] | inhibition at 500 µg/mL (TMV [1]) [%] | inhibition at 100 µg/mL (TMV [3]) [%] | inhibition at 500 µg/mL (TMV [3]) [%] | inhibition at 100 µg/mL (TMV [4]) [%] | inhibition at 500 µg/mL (TMV [4]) [%] | inhibition at 50 µg/mL (Alternaria solani) [%] | inhibition at 50 µg/mL [5] [%] | inhibition at 50 µg/mL (Botrytis cinerea) [%] | inhibition at 50 µg/mL (Sclerotinia sclerotiorum) [%] | inhibition at 50 µg/mL (Rhizoctonia solani) [%] | inhibition at 50 µg/mL (Physalospora piricola) [%] | inhibition at 50 µg/mL (Phytophthora capsici) [%] | inhibition at 50 µg/mL (Bipolaris maydis) [%] | inhibition at 50 µg/mL (watermelon anthracnose) [%] | inhibition at 50 µg/mL (Fusarium graminearum) [%] | also measured |
| --- | --- | --- | --- | --- | --- | --- | --- | --- | --- | --- | --- | --- | --- | --- | --- | --- | --- |
| NC(=O)c1ncn([C@@H]2O[C@H](CO)[C@@H](O)[C@H]2O)n1 [Ribavirin, reference compound] | 10.1 ± 1.6 | 38 ± 2.2 | 12.1 ± 1.4 | 39.2 ± 3.5 | 13.4 ± 0.7 | 40.8 ± 1 |  |  |  |  |  |  |  |  |  |  | Kd [2]: 512 ± 257 nM; effect on the morphology of TMV particles (TEM) (TMV particles): fragmented into shorter rods |
| O=C(Cn1ccc(=O)c2ccccc21)NN=Cc1cc2ccccc2[nH]1 [Compound 23] | 6.6 ± 1.9 | 32.5 ± 4.1 | 0 | 40.1 ± 2.7 | 0 | 43.9 ± 1 | 15.4 ± 1.5 | 6.1 ± 1.3 | 10.4 ± 1.2 | 12.2 ± 0.9 | 3.6 ± 0.5 | 51.5 ± 2.3 | 31 ± 2.1 | 8.9 ± 1.1 | 11.6 ± 0.9 | 14.3 ± 1.1 | relative inhibition rate (%) inactive effect (TMV [3]; 100 mg/L, in vivo, against TMV): did not exhibit any; relative inhibition rate (%) protective effect (TMV [4]; 100 mg/L, in vivo, against TMV): did not exhibit any |
| O=C(Cn1ccc(=O)c2ccccc21)NN=Cc1ccc(C(F)(F)F)cc1 [Compound 17] | 17.7 ± 1.5 | 49.2 ± 3 | 7.5 ± 0.2 | 47.1 ± 1.9 | 19 ± 1.8 | 44.1 ± 1.4 | 15.4 ± 1.3 | 26.5 ± 1.7 | 18.8 ± 1.5 | 22 ± 1.3 | 3.6 ± 0.7 | 47.1 ± 1.4 | 9.5 ± 0.8 | 8.9 ± 0.9 | 11.6 ± 1.2 | 19 ± 1.2 |  |
| Cn1ccc(=O)c2ccccc21 [echinopsine] |  |  |  |  |  |  |  |  |  |  |  |  |  |  |  |  | curative activity against TMV (TMV [6]): 46.1%; inactive activity against TMV (TMV [7]): 49.5%; protective activity against TMV (TMV [8]): 42.6% |
| CNCC(=O)N[C@@H](CO)C(=O)N[C@H]1[C@H](O)[C@@H](O)[C@H](n2ccc(N)nc2=O)O[C@@H]1C(N)=O [Ningnanmycin] |  |  |  |  |  |  |  |  |  |  |  |  |  |  |  |  | actual inhibitory effect in the field (TMV [9]): lower than 60% |
| COc1cccc(C=NNC(=O)Cn2ccc(=O)c3ccccc32)c1 [Compound 4] | 14 ± 0.5 | 47.6 ± 2.5 | 16.8 ± 0.3 | 51.2 ± 1.9 | 15.8 ± 2.5 | 46.3 ± 1.8 | 61.5 ± 3.2 | 36.7 ± 1.4 | 14.6 ± 0.7 | 36.6 ± 1.5 | 57.1 ± 2.3 | 38.2 ± 1.7 | 38.1 ± 1.7 | 33.3 ± 1.4 | 39.5 ± 1.1 | 38.1 ± 1.9 | Kd [2]: 142 ± 60 nM; effect on the morphology of TMV particles (TEM) (TMV particles): hindered the self-assembly and growth of TMV; also recorded: fragmented into shorter rods; inhibition at 50 µg/mL [10]: > 40% |
| O=C(Cn1ccc(=O)c2ccccc21)NN=Cc1ccc(-c2ccccc2)cc1 [Compound 11] | 10.1 ± 2 | 43 ± 2.7 | 19.8 ± 2.8 | 49.6 ± 3.9 | 20.9 ± 0.4 | 45.2 ± 1.1 | 38.5 ± 2.4 | 22.4 ± 1.3 | 25 ± 1.8 | 22 ± 1.4 | 35.7 ± 2.2 | 17.6 ± 1.6 | 26.2 ± 1.5 | 11.1 ± 0.9 | 14 ± 1.7 | 9.5 ± 0.7 |  |

Reference: publication PMC11360041 (ACS Omega, 2024)
